What was measured:
PC-bearing mice = conditions: cited from earlier work
miR-155 [1] = test: miR-155 gene expression by RT-qPCR in UN-KC-6141 cells; format: cell-based, mouse; conditions: API 40 μM, 24 h, vs DMSO vehicle
Experimental: MiR-155 is known to be overexpressed in different cancers, including PC^21, 23. The inventors first assessed whether apigenin could modulate the expression of miR-155 in PC cells. Murine PC cell lines Panc02 and UN-KC-6141 as well as the human PC cell line MiaPaCa-2 were treated with API (40 μM) or DMSO vehicle for 24 h and the expression of miR-155 was examined using RT-qPCR assay. […] Since API is known to inhibit the growth of cancer cells, including PC cells^39-43, 47-50, the same PC cell lines were treated with API (40 μM) or DMSO (vehicle) for 24 h and examined cell viability using MTT assay. […] Moreover, Panc02 and UN-KC-6141 cells were then treated with API at a dose dependent concentration (10, 20, 30, 40, 50 μM) and detected apoptosis using flow cytometry (Annexin V and PI).
miR-155 is implicated in the development of pancreatic tumors from pancreatic intraepithelial neoplasia (PanIN) lesions, and is overexpressed in PC^23. The inventors examined whether the depletion of miR-155 modulated PC viability. Murine and human PC cell lines were transfected with miR-155 inhibitor (i.e., MMU-MIR-155-5P/HSA-MIR-155-5P) and scrambled miRNA at a concentration of 100 nM for 24 h and cell viability determined using an MTT assay. The expression of miR-155 was examined using an RT-qPCR assay as well. […]

[2] = tested on: orthotopic (O) mouse model of PC (OPC); conditions: earlier report (ref 12), cited from earlier work
Panc02 cells = test: MTT cell viability assay, Panc02; format: cell-based, mouse; conditions: API 40 μM, 24 h, vs DMSO vehicle
Experimental: The methyl thiazol tetrazolium (MTT) assay was performed as described previously^58. Briefly, MiaPaCa-2, Panc02 and UN-KC-6141 cells were seeded in 96-well plates at a density of 3000 cells/well and allowed to attach overnight. PC cells were then treated with API (40 μM) or DMSO (1%) as vehicle control for 24 h at 37° C. in 5% CO2 incubator. After 24 h, media was replaced with 20 μL of MTT (1 mg/mL) (Sigma-Aldrich) and incubated for 3 h at 37° C. in 5% CO2. MTT was replaced with DMSO, and absorbance was read at 570 nm.
MiaPaCa-2, Panc02 and UN-KC-6141 cells (2×10^5) were grown in 2 mL of growth medium in a 6-well tissue culture plate for 18-24 h until 60-80% confluency. The following solutions were prepared: Solution A) For each transfection, diluted 1 μL of miRNA-155 inhibitors (1 μM) (Table 2) or scrambled negative control miRNA (1 μM) (Qiagen, Germantown, MD, USA) into 50 μL Opti-MEM Transfection Medium (Invitrogen, Waltham, MA, USA). Solution B) For each transfection, diluted 3 μL of Hi-Perfect Transfection Reagent into 50 μL Opti-MEM Transfection Medium. Solution A was added directly to Solution B, mixed gently and the mixture incubated for 10-15 min at room temperature. […]

miR-155 [3] = test: miR-155 gene expression in BM and tumor of OPC mice; format: in vivo, mouse; conditions: API 25 mg/kg IP 3 times per week for 2-3 weeks, vs OPC mice
Experimental: The inventors reported recently that API reduced tumor growth in an orthotopic (O) mouse model of PC (OPC)^12, which is a more clinically relevant model^69. To investigate if API targets miR-155 and regulates SHIP-1 expression in the BM and tumor of an OPC mouse model, OPC mice were treated with API at a dose of 25 mg/kg (IP) 3 times per week for 2-3 weeks. […] To generate orthotopic pancreatic models (OPC), anesthetized (1.5-3% isoflurane) mice were injected in the neck of the pancreas, via laparotomy^59, with sterile PBS (CTRL) or 1.25×10^4 Panc02 cells (OPC), in sterile 1×PBS. Once pancreatic tumors were confirmed through ultrasound imaging (Vevo 2100), a cohort of OPC mice received API (25 mg/kg, 100 μL volume) while CTRL and OPC mice received sterile PBS (vehicle), all via IP, three times per week until the end of the study^12. […] The PCR cycling parameters were 95° C. for 10 min followed by 40 cycles of a denaturing step at 95° C. for 15 s and an annealing/extension step at 60° C. for 1 min. All reactions were performed in triplicate. Relative expression of miR-155 was calculated using the comparative […] method normalized to a mouse endogenous control gene snoRNA202 and human endogenous control gene U6 (Assay IDs: 001232 and 001093).

[4] = PC mouse model treated with API, earlier report (ref 12)
[5] = PC-bearing mice, previous results (ref 12)

## O=c1cc(-c2ccc(O)cc2)oc2cc(O)cc(O)c12 [API, 40,5,7-Trihydroxyflavone, 5,7-Dihydroxy-2-(4-hydroxyphenyl)-4-benzopyrone]
PC-bearing mice; PC mice, previous report (refs 12, 55)
  tumor weights: decreases
PC-bearing mice; [4]
  intratumoral Treg percentages: significant reduction
  splenic Treg percentages: significant reduction
PC-bearing mice; [5]
  IFN-γ production from intratumoral CD8+ T cells: increases
  granzyme B: increases
  perforin: increases
miR-155 [1]
  miR-155 gene expression: significantly suppressed
[2]; API treatment of OPC mice
  necrosis of pancreatic tumor cells (H&E staining): induced necrosis
[2]; OPC mouse model
  tumor growth: reduced
Panc02 cells
  cell viability (MTT): significantly inhibited
miR-155 [3]
  miR-155 gene expression in BM: inhibit the overexpression
  miR-155 gene expression in pancreatic tumor: significant decrease

— patent publication US20240415804A1, “METHOD OF TREATING PANCREATIC CANCER” (University of South Florida, priority 2022, published 2024)
